The values below come from patent publication US20250235498A1, “METHODS OF TREATING OR PREVENTING RESPIRATORY DISEASE WITH HOUTTUYNIA CORDATA THUNB-BASED AEROSOL INHALATION THERAPY” (National Sun Yat-sen University, priority 2024, published 2025).

The assay deals with cytokine and chemokine in bronchoalveolar lavage fluid (BALF). Kind of assay: Ovalbumin (OVA)-sensitized phenol-induced COPD animal model, cytokine and chemokine detection in BALF. It counts as in vivo, Female BALB/c ByJNarl mice. Conditions: OVA-sensitized mice exposed to phenol aqueous aerosols for 3 weeks, aerosol inhalation; FIG. 3. Here is the method: Four types of aerosol drugs with varying formulation are separately named as drug A, drug B, drug C and NAC. Drug A, drug B and drug C are mainly composed by Houttuynia Cordata Thunb aqueous extract. Drug A (HCA-A) is pure Houttuynia Cordata Thunb aqueous extract. Drug B (HCA-B) is comprised of Houttuynia Cordata Thunb aqueous extract and 500 μM GSH, while Drug C (HCA-C) is comprised of Houttuynia Cordata Thunb aqueous extract, 500 µM GSH and 500 μM BP. NAC is a mucolytic and antioxidant drug already prevalently used in clinic that are known to modulate several pathways of inflammation. NAC is used here as the positive control to compare the efficacy of aerosol formulation of Houttuynia Cordata Thunb in this study.
The OVA-sensitized mice were firstly placed in a custom-built 40 cm×40 cm×30 cm whole-body acrylic exposure chamber, which was filled and continuously replenished with phenol aqueous aerosols (PAA) for 30 minutes, twice per day for three consecutive weeks. PAA were prepared by atomizing 0.25M aqueous phenol solution via a high flow, liquid-feed atomizer (Model 9306, TSI).
Female BALB/c ByJNarl mice (age: 6-8 weeks, weight: 20-25 g) were purchased from National Laboratory Animal Center (NLAC, NARLabs, Taiwan) and approved by the Institutional Animal Care and Use Committee (IACUC) for the experiment of phenol aerosol exposure and inhalation therapy on OVA-treated mice. […]

Turning to `CC(=O)N[C@@H](CS)C(=O)O` [NAC, N-Acetylcysteine], the “Interleukin 1α (IL-1α) level in BALF” value was “did not show apparent reduction”.
